For one data set, the target named is T1, PDE10A (Homo sapiens, UniProt Q9Y233).
T1 construct: made in house; host or cells: SF21 insect cells (baculovirus)
In words: Inhibition of recombinant PDE10A (baculovirus/SF21 system), [3H]-cAMP SPA. It is filed as biochemical. The conditions noted are these: recombinant PDE10A1, cytosolic; 0.1 μM [3H]-cAMP, 37° C., 30 minutes; read-out: PDE10A IC50.

A further data set concerns the target T2, PDE2A (Homo sapiens, UniProt O00408).
T2 construct: made in house; host or cells: SF21 insect cells (baculovirus)
In words: Inhibition of recombinant PDE2A (expressed in baculovirus/SF21-cells), [3H]-cAMP SPA. The class given is biochemical. The procedure, abridged:
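Membrane fraction of baculovirus/SF21-expressed PDE2A was incubated 30 min at 37° C in Tris-HCl/MgCl2 pH 7.4 with 0.5 μM [3H]-cAMP and 1000 nM cGMP as activator. Product was detected by SPA scintillation. IC50 used a Hill-plot 2-parameter model.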

T1 sequence (Q9Y233 1-779 isoform Q9Y233-1): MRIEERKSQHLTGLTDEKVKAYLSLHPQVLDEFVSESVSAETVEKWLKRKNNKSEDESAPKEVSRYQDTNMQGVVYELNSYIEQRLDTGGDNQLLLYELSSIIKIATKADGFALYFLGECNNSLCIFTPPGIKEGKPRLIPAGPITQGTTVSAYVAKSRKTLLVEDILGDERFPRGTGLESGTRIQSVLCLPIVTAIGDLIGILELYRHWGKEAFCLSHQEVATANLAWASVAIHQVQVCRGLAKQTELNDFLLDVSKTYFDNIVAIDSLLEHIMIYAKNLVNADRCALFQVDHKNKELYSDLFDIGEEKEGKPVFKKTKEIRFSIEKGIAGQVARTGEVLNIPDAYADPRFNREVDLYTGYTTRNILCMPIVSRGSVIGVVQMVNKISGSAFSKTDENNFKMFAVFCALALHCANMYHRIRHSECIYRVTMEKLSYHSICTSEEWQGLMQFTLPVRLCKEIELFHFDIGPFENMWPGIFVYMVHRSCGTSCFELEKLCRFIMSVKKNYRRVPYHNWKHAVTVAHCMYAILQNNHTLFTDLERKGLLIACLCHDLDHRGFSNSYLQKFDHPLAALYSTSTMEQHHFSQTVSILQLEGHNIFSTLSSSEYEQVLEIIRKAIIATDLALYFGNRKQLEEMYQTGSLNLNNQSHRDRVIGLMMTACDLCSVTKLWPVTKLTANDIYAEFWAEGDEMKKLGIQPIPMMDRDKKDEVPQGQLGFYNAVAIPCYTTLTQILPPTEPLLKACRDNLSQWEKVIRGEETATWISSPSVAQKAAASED
T2 sequence (O00408 whole entry): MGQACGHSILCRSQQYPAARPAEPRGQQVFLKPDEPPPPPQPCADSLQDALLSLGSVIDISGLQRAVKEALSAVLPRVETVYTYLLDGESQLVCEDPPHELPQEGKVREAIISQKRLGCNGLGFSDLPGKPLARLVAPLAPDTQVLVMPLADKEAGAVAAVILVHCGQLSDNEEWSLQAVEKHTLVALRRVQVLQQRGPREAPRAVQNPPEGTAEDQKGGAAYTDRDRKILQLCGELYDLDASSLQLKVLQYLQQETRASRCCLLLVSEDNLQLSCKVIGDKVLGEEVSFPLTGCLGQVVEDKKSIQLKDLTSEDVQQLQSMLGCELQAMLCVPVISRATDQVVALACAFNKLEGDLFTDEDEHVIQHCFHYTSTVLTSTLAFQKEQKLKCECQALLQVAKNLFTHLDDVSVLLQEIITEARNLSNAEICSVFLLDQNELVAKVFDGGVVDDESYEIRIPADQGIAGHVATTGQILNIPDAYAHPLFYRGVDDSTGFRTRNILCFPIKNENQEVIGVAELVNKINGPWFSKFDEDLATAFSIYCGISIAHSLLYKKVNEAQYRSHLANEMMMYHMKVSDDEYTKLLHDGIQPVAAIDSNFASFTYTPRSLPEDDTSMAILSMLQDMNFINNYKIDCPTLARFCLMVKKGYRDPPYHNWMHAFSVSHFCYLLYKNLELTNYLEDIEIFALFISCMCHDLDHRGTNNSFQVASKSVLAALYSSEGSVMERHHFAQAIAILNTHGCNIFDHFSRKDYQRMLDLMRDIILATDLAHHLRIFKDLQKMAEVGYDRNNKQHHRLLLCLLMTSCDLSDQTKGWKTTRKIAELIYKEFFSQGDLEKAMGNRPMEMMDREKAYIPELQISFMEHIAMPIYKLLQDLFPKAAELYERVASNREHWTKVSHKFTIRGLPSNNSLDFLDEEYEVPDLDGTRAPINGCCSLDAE

The IC50 is the concentration that gives 50% inhibition. Broadly, the melting point is the temperature, or range, at which the solid turns liquid. For the compound `Cc1nc(-c2cc(C(F)(F)F)ccc2F)n2c1nnc1cc(F)ccc12` [Example 30, 7-fluoro-1-(2-fluoro-5-(trifluoromethyl)phenyl)-3-methylbenzo[e]imidazo[5,1-c][1,2,4]triazine], the melting point lay within 205 to 206 °C. For the same compound, at PDE10A, the IC50 was > 1000 nM. Further, the IC50 at PDE2A came to 1790 nM.

`Cc1ncccc1-c1nc(C)c2nnc3ccc(Cl)cc3n12` [Example 38, 8-chloro-3-methyl-1-(2-methylpyridin-3-yl)benzo[e]imidazo[5,1-c][1,2,4]triazine] registered a melting point of 235 to 236 °C. Moreover, the IC50 on PDE10A was 207 nM. Moreover, at PDE2A, the IC50 was found to be 41.4 nM.

The compound `COc1ccc(Cl)c(-c2nc(C)c3nnc4cc(F)ccc4n23)c1` [Example 29, 1-(2-chloro-5-methoxyphenyl)-7-fluoro-3-methylbenzo[e]imidazo[5,1-c][1,2,4]triazine] showed a melting point of 158 to 161.5 °C. For the same compound, on PDE10A, the IC50 is 425 nM. Also, on PDE2A, the IC50 was found to be 35.3 nM.

In the case of `Cc1nc(-c2cccc(Cl)c2Cl)n2c1nnc1ccc(F)cc12` [Example 14, 1-(2,3-dichlorophenyl)-8-fluoro-3-methylbenzo[e]imidazo[5,1-c][1,2,4]triazine], the melting point was in the range of 193 to 196 °C. In addition, the IC50 at PDE10A turned out to be 308 nM. Also, the IC50 at PDE2A was found to be 371 nM.

On to `COc1ccccc1-c1nc(C)c2nnc3cc(F)ccc3n12` [Example 26, 7-fluoro-1-(2-methoxyphenyl)-3-methylbenzo[e]imidazo[5,1-c][1,2,4]triazine], for which the melting point is 249 to 251 °C. For the same compound, on PDE10A, the IC50 came to 635 nM. For the same compound, at PDE2A, the IC50 is 500 nM.

The compound `COc1ccc2c(c1)nnc1c(C)ncn12` [Example 35, 7-methoxy-3-methylbenzo[e]imidazo[5,1-c][1,2,4]triazine] registered a melting point of 212 to 215 °C. On PDE10A, the IC50 is > 5000 nM. Also, the IC50 on PDE2A is > 5000 nM.

In turn, `Cc1nc(-c2ccccc2Cl)n2c1nnc1ccc(OCc3ccc(F)cc3)cc12` [Example 187, 1-(2-Chloro-phenyl)-8-(4-fluoro-benzyloxy)-3-methyl-imidazo[5,1-c][1,2,4]benzotriazine] showed a melting point of 174 to 177 °C. For the same compound, the IC50 at PDE10A turned out to be 24.6 nM. In addition, at PDE2A, the IC50 is 9.72 nM.

`Cc1ncccc1-c1nc(C)c2nnc3cc(F)ccc3n12` [Example 25, 7-fluoro-3-methyl-1-(2-methylpyridin-3-yl)benzo[e]imidazo[5,1-c][1,2,4]triazine] gave a melting point of 169 to 172 °C. For the same compound, the IC50 at PDE10A is 1490 nM. The IC50 on PDE2A turned out to be 341 nM.

`Cc1nc(-c2cnccc2Cl)n2c1nnc1ccc(F)cc12` [Example 19, 1-(4-chloropyridin-3-yl)-8-fluoro-3-methylbenzo[e]imidazo[5,1-c][1,2,4]triazine] gave a melting point of 141 to 144 °C. The IC50 on PDE10A was 2030 nM. Moreover, the IC50 at PDE2A worked out at 1360 nM.

`Cc1nc(-c2cccc(Cl)c2Cl)n2c1nnc1ccc(-c3cccc(Cl)c3Cl)cc12` [Example 173, 1,8-Bis-(2,3-dichloro-phenyl)-3-methyl-imidazo[5,1-c][1,2,4]benzotriazine] showed a melting point of 207 to 210 °C. Also, at PDE10A, the IC50 is 57.6 nM. Moreover, the IC50 at PDE2A turned out to be 61.5 nM.

Regarding `COc1ccc2c(c1)nnc1c(C)nc(-c3cc(Cl)ccc3Cl)n12` [Example 7, 1-(2,5-dichlorophenyl)-7-methoxy-3-methyl-imidazo[5,1-c][1,2,4]benzotriazine], the melting point fell in the range of 144 to 147 °C. Also, the IC50 at PDE10A was found to be 258 nM. Besides, the half-maximal inhibitory concentration (IC50) at PDE2A worked out at 17.8 nM.

Take `Cc1nc(-c2ccccc2Cl)n2c1nnc1ccc(N3CCN(C)CC3)cc12` [Example 186, 1-(2-Chloro-phenyl)-3-methyl-8-(4-methyl-piperazin-1-yl)-imidazo[5,1-c][1,2,4]benzotriazine]: the melting point is 230 °C. Further, at PDE10A, the IC50 was determined as 9.02 nM. The IC50 at PDE2A came to 7.49 nM.

`COc1cc2nnc3c(C)nc(-c4ccccn4)n3c2cc1OC` [Example 50, 7,8-dimethoxy-3-methyl-1-(pyridin-2-yl)benzo[e]imidazo[5,1-c][1,2,4]triazine]: the melting point lay in the range of 199 to 202 °C. Moreover, the IC50 on PDE10A amounted to 71.2 nM. The IC50 at PDE2A stood at 2190 nM.

`Cc1nc(-c2cc(OC(C)C)ccc2F)n2c1nnc1ccc(F)cc12` [Example 20, 8-fluoro-1-(2-fluoro-5-isopropoxyphenyl)-3-methylbenzo[e]imidazo[5,1-c][1,2,4]triazine]: the melting point lay in the range of 148 to 150.5 °C. Moreover, the IC50 on PDE10A was 2290 nM. Also, the IC50 at PDE2A came out at 473 nM.

`Cc1nc(-c2cc(Cl)ccc2Cl)n2c1nnc1cc(F)ccc12` [Example 6, 1-(2,5-dichlorophenyl)-7-fluoro-3-methyl-imidazo[5,1-c][1,2,4]benzotriazine] showed a melting point of 186 to 190 °C. In addition, the IC50 at PDE10A was 761 nM. Moreover, the IC50 on PDE2A was determined as 29.8 nM.

`Cc1nc(-c2ccnn2C)n2c1nnc1ccc(F)cc12` [Example 15, 8-fluoro-3-methyl-1-(1-methyl-1H-pyrazol-5-yl)benzo[e]imidazo[5,1-c][1,2,4]triazine] had a melting point of 217 to 220 °C. Moreover, the IC50 at PDE10A is > 5000 nM. Further, the IC50 on PDE2A was > 1000 nM.

With `Cc1nc(-c2cc(Cl)ccc2Cl)n2c1nnc1ccc(F)cc12` [Example 8, 1-(2,5-dichlorophenyl)-8-fluoro-3-methylbenzo[e]imidazo[5,1-c][1,2,4]triazine], the melting point was in the range of 146 to 149 °C. The IC50 on PDE10A was 176 nM. Further, the IC50 at PDE2A worked out at 36.5 nM.

Compound `Cc1ccccc1-c1nc(C)c2nnc3ccc(F)cc3n12` [Example 17, 8-fluoro-3-methyl-1-o-tolylbenzo[e]imidazo[5,1-c][1,2,4]triazine] yielded a melting point of 192 to 195 °C. On PDE10A, the IC50 worked out at 196 nM. The IC50 on PDE2A worked out at 122 nM.

As for `Cc1nc(-c2ccccc2C(N)=O)n2c1nnc1ccc(Cl)cc12` [Example 41, 2-(8-chloro-3-methylbenzo[e]imidazo[5,1-c][1,2,4]triazin-1-yl)benzamide], the melting point lay in the range of 249 to 251 °C. Moreover, on PDE10A, the IC50 turned out to be 3120 nM. Besides, at PDE2A, the 50% inhibitory concentration (IC50) was > 1000 nM.

`Cc1nc(-c2cc(C(F)(F)F)ccc2F)n2c1nnc1ccc(F)cc12` [Example 21, 8-fluoro-1-(2-fluoro-5-(trifluoromethyl)phenyl)-3-methylbenzo[e]imidazo[5,1-c][1,2,4]triazine] displayed a melting point of 176 to 179 °C. Moreover, the IC50 on PDE10A is > 1000 nM. At PDE2A, the IC50 was 912 nM.

For the compound `Cc1nc(-c2ccccc2Cl)n2c1nnc1ccc(-c3ccccc3Cl)cc12` [Example 172, 1,8-Bis-(2-chloro-phenyl)-3-methyl-imidazo[5,1-c][1,2,4]benzotriazine], the melting point is 172 to 175 °C. The IC50 at PDE10A came out at 6.55 nM. Moreover, the IC50 on PDE2A came out at 1.28 nM.

In the case of `COc1ccc2nnc3c(C)nc(-c4cc(OC(C)C)ccc4F)n3c2c1` [Example 44, 1-(2-fluoro-5-isopropoxyphenyl)-8-methoxy-3-methylbenzo[e]imidazo[5,1-c][1,2,4]triazine], the melting point was 204 to 207 °C. Also, on PDE10A, the IC50 turned out to be 1550 nM. Further, the IC50 at PDE2A is 121 nM.

On to `CCCc1nc(C)c2nnc3cc(OC)ccc3n12` [Example 2, 7-methoxy-3-methyl-1-propyl-imidazo[5,1-c][1,2,4]benzotriazine], for which the melting point fell in the range of 159 to 162 °C. On PDE10A, the IC50 came to 401 nM. In addition, the 50% inhibitory concentration (IC50) at PDE2A was found to be 546 nM.

As for `Cc1nc(-c2cc(C(F)(F)F)ccc2F)n2c1nnc1ccc(-c3cc(C(F)(F)F)ccc3F)cc12` [Example 176, 1,8-Bis-(2-fluoro-5-trifluoromethyl-phenyl)-3-methyl-imidazo[5,1-c][1,2,4]benzotriazine], the melting point lay within 155 to 158 °C. The IC50 on PDE10A stood at 117 nM. The IC50 at PDE2A was determined as 137 nM.
